pIC50: −log10 of the molar value.
System: 994946-033-R-J1-PDC complex spheroid viability
Experiment: Anticancer human tumor 994946-033-R-J1-PDC patient-derived melanoma cell line growth inhibition [POLQ]
Conditions: for pIC50: curve of first compound; for viability, T/C: stronger effect = lower value
In short: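 Complex spheroid viability model combining PDC tumour cells with endothelial (HUVEC) and MSC stromal cells. Novobiocin, ART-558 or RP6685 were tested singly and in combination with standard and investigational anticancer drugs. Each was titrated in half-log steps from near clinical Cmax, or from 10 microM where Cmax was unknown.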

[1] = second compound 0.0316 µM, first compound 0.0316 µM
[2] = second compound 0.0316 µM, first compound 0.1 µM
[3] = second compound 0.0316 µM, first compound 0.316 µM
[4] = second compound 0.0316 µM, first compound 1 µM
[5] = second compound 0.1 µM, first compound 0.0316 µM
[6] = second compound 0.1 µM, first compound 0.1 µM
[7] = second compound 0.1 µM, first compound 0.316 µM
[8] = second compound 0.1 µM, first compound 1 µM
[9] = second compound 0.316 µM, first compound 0.0316 µM
[10] = second compound 0.316 µM, first compound 0.1 µM
[11] = second compound 0.316 µM, first compound 0.316 µM
[12] = second compound 0.316 µM, first compound 1 µM
[13] = second compound 1 µM, first compound 0.0316 µM
[14] = second compound 1 µM, first compound 0.1 µM
[15] = second compound 1 µM, first compound 0.316 µM
[16] = second compound 1 µM, first compound 1 µM
[17] = second compound 3.16 µM, first compound 0.0316 µM
[18] = second compound 3.16 µM, first compound 0.1 µM
[19] = second compound 3.16 µM, first compound 0.316 µM
[20] = second compound 3.16 µM, first compound 1 µM
[21] = second compound 10 µM, first compound 0.0316 µM
[22] = second compound 10 µM, first compound 0.1 µM
[23] = second compound 10 µM, first compound 0.316 µM
[24] = second compound 10 µM, first compound 1 µM
[25] = second compound 0.0316 µM, first compound 3.16 µM
[26] = second compound 0.0316 µM, first compound 10 µM
[27] = second compound 0.1 µM, first compound 3.16 µM
[28] = second compound 0.1 µM, first compound 10 µM
[29] = second compound 0.316 µM, first compound 3.16 µM
[30] = second compound 0.316 µM, first compound 10 µM
[31] = second compound 1 µM, first compound 3.16 µM
[32] = second compound 1 µM, first compound 10 µM
[33] = second compound 3.16 µM, first compound 3.16 µM
[34] = second compound 3.16 µM, first compound 10 µM
[35] = second compound 10 µM, first compound 3.16 µM
[36] = second compound 10 µM, first compound 10 µM
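Note: spheroids exposed to drugs for 7 days.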
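Throughout, for viability, T/C: 100% = DMSO vehicle treated spheroids.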

COc1cccc(OCCCN)c1-c1cc(Nc2cnc(C#N)cn2)n[nH]1 + COC1C(OC(N)=O)C(O)C(Oc2ccc3c(O)c(NC(=O)c4ccc(O)c(CC=C(C)C)c4)c(=O)oc3c2C)OC1(C)C
pIC50 (second compound 0.0316 µM): 7.73 | pIC50 (second compound 0.1 µM): 7.84 | pIC50 (second compound 0.316 µM): 7.92 | pIC50 (second compound 1 µM): 8.25 | pIC50 (second compound 3.16 µM): 7.76 | pIC50 (second compound 10 µM): 8.35 | viability, T/C (second compound 0.0316 µM, first compound 0.00316 µM): 73.9% | viability, T/C (second compound 0.0316 µM, first compound 0.01 µM): 69.9% | viability, T/C [1]: 32.6% | viability, T/C [2]: 24.9% | viability, T/C [3]: 13.1% | viability, T/C [4]: 9.24% | viability, T/C (second compound 0.1 µM, first compound 0.00316 µM): 84.2% | viability, T/C (second compound 0.1 µM, first compound 0.01 µM): 60.2% | viability, T/C [5]: 27.5% | viability, T/C [6]: 14.4% | viability, T/C [7]: 22% | viability, T/C [8]: 11.6% | viability, T/C (second compound 0.316 µM, first compound 0.00316 µM): 84.3% | viability, T/C (second compound 0.316 µM, first compound 0.01 µM): 52.7% | viability, T/C [9]: 34.9% | viability, T/C [10]: 11% | viability, T/C [11]: 26.5% | viability, T/C [12]: 18.1% | viability, T/C (second compound 1 µM, first compound 0.00316 µM): 57.6% | viability, T/C (second compound 1 µM, first compound 0.01 µM): 42.3% | viability, T/C [13]: 25.7% | viability, T/C [14]: 17.3% | viability, T/C [15]: 30.8% | viability, T/C [16]: 13.8% | viability, T/C (second compound 3.16 µM, first compound 0.00316 µM): 85.8% | viability, T/C (second compound 3.16 µM, first compound 0.01 µM): 54.5% | viability, T/C [17]: 38.7% | viability, T/C [18]: 32.7% | viability, T/C [19]: 19.7% | viability, T/C [20]: 9.09% | viability, T/C (second compound 10 µM, first compound 0.00316 µM): 56.9% | viability, T/C (second compound 10 µM, first compound 0.01 µM): 34.2% | viability, T/C [21]: 18.9% | viability, T/C [22]: 21.2% | viability, T/C [23]: 20.2% | viability, T/C [24]: 17.5%

COc1cccc2c1C(=O)c1c(O)c3c(c(O)c1C2=O)CC(O)(C(=O)CO)CC3OC1CC(N)C(O)C(C)O1 (stereo unspecified) + Cc1cccc(N(C)C(=O)C2C(O)CCN2c2nc(C)cc(C(F)(F)F)c2C#N)c1
pIC50 (second compound 0.0316 µM): > 7.50 | pIC50 (second compound 0.1 µM): > 7.50 | pIC50 (second compound 0.316 µM): > 7.50 | pIC50 (second compound 1 µM): > 7.50 | pIC50 (second compound 3.16 µM): > 7.50 | pIC50 (second compound 10 µM): > 7.50 | viability, T/C [1]: 31.8% | viability, T/C [2]: 10.5% | viability, T/C [3]: 2.24% | viability, T/C [4]: 1.98% | viability, T/C [25]: 2.99% | viability, T/C [26]: 0.53% | viability, T/C [5]: 26.8% | viability, T/C [6]: 6.95% | viability, T/C [7]: 3.98% | viability, T/C [8]: 0.54% | viability, T/C [27]: 1.3% | viability, T/C [28]: 1.07% | viability, T/C [9]: 22.5% | viability, T/C [10]: 7.12% | viability, T/C [11]: 3.03% | viability, T/C [12]: 2.42% | viability, T/C [29]: 1.56% | viability, T/C [30]: 0.77% | viability, T/C [13]: 47.9% | viability, T/C [14]: 7.31% | viability, T/C [15]: 1.73% | viability, T/C [16]: 2.31% | viability, T/C [31]: 1.01% | viability, T/C [32]: 0.51% | viability, T/C [17]: 22.8% | viability, T/C [18]: 7.88% | viability, T/C [19]: 1.7% | viability, T/C [20]: 1.41% | viability, T/C [33]: 1.39% | viability, T/C [34]: 0.69% | viability, T/C [21]: 33.1% | viability, T/C [22]: 8.28% | viability, T/C [23]: 2.08% | viability, T/C [24]: 1.32% | viability, T/C [35]: 0.67% | viability, T/C [36]: 0.65%

O=c1[nH]cc(F)c(=O)[nH]1 + COC1C(OC(N)=O)C(O)C(Oc2ccc3c(O)c(NC(=O)c4ccc(O)c(CC=C(C)C)c4)c(=O)oc3c2C)OC1(C)C
pIC50 (second compound 0.0316 µM): < 5.00 | pIC50 (second compound 0.1 µM): 5.08 | pIC50 (second compound 0.316 µM): 5.15 | pIC50 (second compound 1 µM): < 5.00 | pIC50 (second compound 3.16 µM): 5.05 | pIC50 (second compound 10 µM): < 5.00 | viability, T/C [1]: 86% | viability, T/C [2]: 130% | viability, T/C [3]: 113% | viability, T/C [4]: 76% | viability, T/C [25]: 60.7% | viability, T/C [26]: 53.7% | viability, T/C [5]: 91.2% | viability, T/C [6]: 93.2% | viability, T/C [7]: 102% | viability, T/C [8]: 82% | viability, T/C [27]: 61.7% | viability, T/C [28]: 47.4% | viability, T/C [9]: 133% | viability, T/C [10]: 99.6% | viability, T/C [11]: 100% | viability, T/C [12]: 71% | viability, T/C [29]: 45.3% | viability, T/C [30]: 53.5% | viability, T/C [13]: 87.6% | viability, T/C [14]: 102% | viability, T/C [15]: 91.8% | viability, T/C [16]: 57% | viability, T/C [31]: 53.7% | viability, T/C [32]: 53.9% | viability, T/C [17]: 124% | viability, T/C [18]: 113% | viability, T/C [19]: 83.7% | viability, T/C [20]: 65.9% | viability, T/C [33]: 60.6% | viability, T/C [34]: 50.4% | viability, T/C [21]: 108% | viability, T/C [22]: 114% | viability, T/C [23]: 90.5% | viability, T/C [24]: 81.1% | viability, T/C [35]: 58.6% | viability, T/C [36]: 61.5%
